Reference: patent publication US20100093662A1, “NOVEL AMPHIPHILIC CYCLODEXTRIN DERIVATIVES” (CENTRE NATIONAL DE LA RECHERCHE SCIENTIFIQUE-CNRS-, priority 2006, published 2010)

Test: Size and polydispersion of white homogenous nanospheres (quasi-elastic diffusion of light), physical stability over time
Type: physicochemical
Description: The method used to prepare white homogenous nanospheres consists in introducing an organic phase of acetone (or tetrahydrofurane) and an amphiphilic cyclodextrin derivative from the invention (1 mg·mL^−1) in an aqueous phase of equivalent volume or a double volume (distilled water), under magnetic stirring (500 r.p.m.) at 25° C. After nanoprecipitation, the organic solvent is eliminated under reduced pressure at +35° C. The aqueous suspension presenting an opalescent to milky appearance (according to the products used) is then concentrated until the final volume desired is obtained, then filtered on a 0.8 μm filter (Millex AA, Millipore, France).
The colloid suspensions are then characterised as regards the granulometry (mean size and polydisperion) and, when they incorporate loaded amphiphilic cyclodextrins, by their zeta potential. The characterisation is carried out using the following methods:
The quasi-elastic diffusion of light is used. A Zetasizer 3000 apparatus equipped with a K7132 correlator (Malvern Instruments, RU) was used. The conditions for measurement are as follows: angle of detection 90°, temperature 25±0.1° C., apparent viscosity 0.89 mPa·s. Before measuring the size, samples are diluted in distilled water if necessary. The hydrodynamic diameter (mean Z) and polydispersion index (PI) of the nanoparticles in suspension are calculated in intensity by the cumulant method by carrying out 3 measurements on the same sample. The value of the hydrodynamic diameter is calculated using the measurement of the translational coefficient of diffusion of particles with Brownian movement. An NanoZS apparatus (Malvern Instruments) was also used to measure the size of the nanocapsules. In the same way, the samples are diluted before measurement, if necessary in water added to Montanox 80 (trade mark).
The studies on the physical stability of particles were carried out over periods ranging from 1 month to 8 months. The corresponding data for a series of amphiphilic cyclodextrins in the invention are indicated in Table 1 providing the granulometric characteristics (mean size and polydispersion index or mean PI), with evolution over time, of different homogenous nanospheres derived from the compounds indicated in the left column, the reference number for said compounds corresponding to those of the compounds described in the above examples.

Row | Compound | Mean size ± standard deviation (n = 3) (8 months) | PI (polydispersion index) (8 months) | Mean size ± standard deviation (n = 3) (initial) | PI (polydispersion index) (initial) | IP (polydispersion index) (3 months) | Mean size ± standard deviation (n = 3) (3 months) | IP (polydispersion index) (6 months) | Mean size ± standard deviation (n = 3) (6 months)
1 | CCCCCC(=O)O[C@@H]1[C@@H](OC(=O)CCCCC)[C@H]2O[C@H]3[C@H](OC(=O)CCCCC)[C@@H](OC(=O)CCCCC)[C@@H](O[C@H]4[C@H](OC(=O)CCCCC)[C@@H](OC(=O)CCCCC)[C@@H](O[C@H]5[C@H](OC(=O)CCCCC)[C@@H](OC(=O)CCCCC)[C@@H](O[C@H]6[C@H](OC(=O)CCCCC)[C@@H](OC(=O)CCCCC)[C@@H](O[C@H]7[C@H](OC(=O)CCCCC)[C@@H](OC(=O)CCCCC)[C@@H](O[C@H]8[C@H](OC(=O)CCCCC)[C@@H](OC(=O)CCCCC)[C@@H](O[C@@H]1[C@@H](CI)O2)O[C@@H]8CI)O[C@@H]7CI)O[C@@H]6CI)O[C@@H]5CI)O[C@@H]4CI)O[C@@H]3CI [compound no. 1, heptakis(6-desoxy-2,3-di-0-hexanoyl-6-iodo) cyclomaltoheptaose] | 236 ± 13 nm | 0.03 | 251 ± 62 nm | 0.08 | – | – | – | –
2 | CCCCCC(=O)O[C@@H]1[C@@H](OC(=O)CCCCC)[C@H]2O[C@H]3[C@H](OC(=O)CCCCC)[C@@H](OC(=O)CCCCC)[C@@H](O[C@H]4[C@H](OC(=O)CCCCC)[C@@H](OC(=O)CCCCC)[C@@H](O[C@H]5[C@H](OC(=O)CCCCC)[C@@H](OC(=O)CCCCC)[C@@H](O[C@H]6[C@H](OC(=O)CCCCC)[C@@H](OC(=O)CCCCC)[C@@H](O[C@H]7[C@H](OC(=O)CCCCC)[C@@H](OC(=O)CCCCC)[C@@H](O[C@H]8[C@H](OC(=O)CCCCC)[C@@H](OC(=O)CCCCC)[C@@H](O[C@@H]1[C@@H](CBr)O2)O[C@@H]8CBr)O[C@@H]7CBr)O[C@@H]6CBr)O[C@@H]5CBr)O[C@@H]4CBr)O[C@@H]3CBr [compound no. 2, heptakis(6-bromo-6-desoxy-2,3-di-O-hexanoyl)cyclomaltoheptaose] | 182 ± 22 nm | 0.01 | 238 ± 29 nm | 0.02 | – | – | – | –
3 | CCCCCC(=O)O[C@@H]1[C@@H](OC(=O)CCCCC)[C@H]2O[C@H]3[C@H](OC(=O)CCCCC)[C@@H](OC(=O)CCCCC)[C@@H](O[C@H]4[C@H](OC(=O)CCCCC)[C@@H](OC(=O)CCCCC)[C@@H](O[C@H]5[C@H](OC(=O)CCCCC)[C@@H](OC(=O)CCCCC)[C@@H](O[C@H]6[C@H](OC(=O)CCCCC)[C@@H](OC(=O)CCCCC)[C@@H](O[C@H]7[C@H](OC(=O)CCCCC)[C@@H](OC(=O)CCCCC)[C@@H](O[C@H]8[C@H](OC(=O)CCCCC)[C@@H](OC(=O)CCCCC)[C@@H](O[C@@H]1[C@@H](CN=[N+]=[N-])O2)O[C@@H]8CN=[N+]=[N-])O[C@@H]7CN=[N+]=[N-])O[C@@H]6CN=[N+]=[N-])O[C@@H]5CN=[N+]=[N-])O[C@@H]4CN=[N+]=[N-])O[C@@H]3CN=[N+]=[N-] [compound no. 3, heptakis(6-azido-6-desoxy-2,3-di-O-hexanoyl)cyclomaltoheptaose] | – | – | 181 ± 5 nm | 0.08 | 0.06 | 157 ± 8 nm | 0.18 | 206 ± 17 nm
4 | CCCCCCCCCCCCCC(=O)O[C@@H]1[C@@H](OC(=O)CCCCCCCCCCCCC)[C@H]2O[C@H]3[C@H](OC(=O)CCCCCCCCCCCCC)[C@@H](OC(=O)CCCCCCCCCCCCC)[C@@H](O[C@H]4[C@H](OC(=O)CCCCCCCCCCCCC)[C@@H](OC(=O)CCCCCCCCCCCCC)[C@@H](O[C@H]5[C@H](OC(=O)CCCCCCCCCCCCC)[C@@H](OC(=O)CCCCCCCCCCCCC)[C@@H](O[C@H]6[C@H](OC(=O)CCCCCCCCCCCCC)[C@@H](OC(=O)CCCCCCCCCCCCC)[C@@H](O[C@H]7[C@H](OC(=O)CCCCCCCCCCCCC)[C@@H](OC(=O)CCCCCCCCCCCCC)[C@@H](O[C@H]8[C@H](OC(=O)CCCCCCCCCCCCC)[C@@H](OC(=O)CCCCCCCCCCCCC)[C@@H](O[C@@H]1[C@@H](CI)O2)O[C@@H]8CI)O[C@@H]7CI)O[C@@H]6CI)O[C@@H]5CI)O[C@@H]4CI)O[C@@H]3CI [compound no. 4, heptakis(6-desoxy-6-iodo-2,3-di-O-myristoyl)cyclomaltoheptaose] | – | – | 217 ± 17 nm | 0.04 | 0.03 | 206 ± 20 nm | 0.06 | 227 ± 26 nm
5 | CCCCCC(=O)O[C@@H]1[C@@H](OC(=O)CCCCC)[C@H]2O[C@H]3[C@H](OC(=O)CCCCC)[C@@H](OC(=O)CCCCC)[C@@H](O[C@H]4[C@H](OC(=O)CCCCC)[C@@H](OC(=O)CCCCC)[C@@H](O[C@H]5[C@H](OC(=O)CCCCC)[C@@H](OC(=O)CCCCC)[C@@H](O[C@H]6[C@H](OC(=O)CCCCC)[C@@H](OC(=O)CCCCC)[C@@H](O[C@H]7[C@H](OC(=O)CCCCC)[C@@H](OC(=O)CCCCC)[C@@H](O[C@H]8[C@H](OC(=O)CCCCC)[C@@H](OC(=O)CCCCC)[C@@H](O[C@@H]1[C@@H](CSCCNC(=O)OC(C)(C)C)O2)O[C@@H]8CSCCNC(=O)OC(C)(C)C)O[C@@H]7CSCCNC(=O)OC(C)(C)C)O[C@@H]6CSCCNC(=O)OC(C)(C)C)O[C@@H]5CSCCNC(=O)OC(C)(C)C)O[C@@H]4CSCCNC(=O)OC(C)(C)C)O[C@@H]3CSCCNC(=O)OC(C)(C)C [compound no. 7, heptakis[6-(2-tert-butoxycarbonylaminoethylthio)-6-desoxy-2,3-di-0-hexanoyl]cyclomaltoheptaose] | 194 ± 2 nm | 0.02 | 283 ± 29 nm | 0.06 | – | – | – | –

Second part, the molecule after the results:

Row | Mean size ± standard deviation (n = 3) (8 months) | PI (polydispersion index) (8 months) | Mean size ± standard deviation (n = 3) (initial) | PI (polydispersion index) (initial) | IP (polydispersion index) (3 months) | Mean size ± standard deviation (n = 3) (3 months) | IP (polydispersion index) (6 months) | Mean size ± standard deviation (n = 3) (6 months) | Compound
6 | – | – | 244 ± 13 nm | 0.13 | 0.05 | 232 ± 22 nm | 0.03 | 242 ± 27 nm | CCCCCCCCCCCCCC(=O)O[C@@H]1[C@@H](OC(=O)CCCCCCCCCCCCC)[C@H]2O[C@H]3[C@H](OC(=O)CCCCCCCCCCCCC)[C@@H](OC(=O)CCCCCCCCCCCCC)[C@@H](O[C@H]4[C@H](OC(=O)CCCCCCCCCCCCC)[C@@H](OC(=O)CCCCCCCCCCCCC)[C@@H](O[C@H]5[C@H](OC(=O)CCCCCCCCCCCCC)[C@@H](OC(=O)CCCCCCCCCCCCC)[C@@H](O[C@H]6[C@H](OC(=O)CCCCCCCCCCCCC)[C@@H](OC(=O)CCCCCCCCCCCCC)[C@@H](O[C@H]7[C@H](OC(=O)CCCCCCCCCCCCC)[C@@H](OC(=O)CCCCCCCCCCCCC)[C@@H](O[C@H]8[C@H](OC(=O)CCCCCCCCCCCCC)[C@@H](OC(=O)CCCCCCCCCCCCC)[C@@H](O[C@@H]1[C@@H](CBr)O2)O[C@@H]8CBr)O[C@@H]7CBr)O[C@@H]6CBr)O[C@@H]5CBr)O[C@@H]4CBr)O[C@@H]3CBr [compound no. 5, heptakis(6-bromo-6-desoxy-2,3-di-O-myristoyl)cyclomaltoheptaose]
7 | – | – | 123 ± 2 nm | 0.03 | 0.09 | 138 ± 2 nm | – | – | CCCCCC(=O)O[C@@H]1[C@@H](OC(=O)CCCCC)[C@H]2O[C@H]3[C@H](OC(=O)CCCCC)[C@@H](OC(=O)CCCCC)[C@@H](O[C@H]4[C@H](OC(=O)CCCCC)[C@@H](OC(=O)CCCCC)[C@@H](O[C@H]5[C@H](OC(=O)CCCCC)[C@@H](OC(=O)CCCCC)[C@@H](O[C@H]6[C@H](OC(=O)CCCCC)[C@@H](OC(=O)CCCCC)[C@@H](O[C@H]7[C@H](OC(=O)CCCCC)[C@@H](OC(=O)CCCCC)[C@@H](O[C@H]8[C@H](OC(=O)CCCCC)[C@@H](OC(=O)CCCCC)[C@@H](O[C@@H]1[C@@H](CSCCN=C=S)O2)O[C@@H]8CSCCN=C=S)O[C@@H]7CSCCN=C=S)O[C@@H]6CSCCN=C=S)O[C@@H]5CSCCN=C=S)O[C@@H]4CSCCN=C=S)O[C@@H]3CSCCN=C=S [compound no. 9, heptakis[6-desoxy-2,3-di-0-hexanoyl-6-(2-isothiocyanatoethylthio)]cyclomaltoheptaose]
8 | – | – | 115 ± 31 nm | 0.16 | – | – | – | – | CCCCCC(=O)OC1C2OC(CSCCNC(=S)NC)C(OC3OC(CSCCNC(=S)NC)C(OC4OC(CSCCNC(=S)NC)C(OC5OC(CSCCNC(=S)NC)C(OC6OC(CSCCNC(=S)NC)C(OC7OC(CSCCNC(=S)NC)C(OC8OC(CSCCNC(=S)NC)C(O2)C(OC(=O)CCCCC)C8OC(=O)CCCCC)C(OC(=O)CCCCC)C7OC(=O)CCCCC)C(OC(=O)CCCCC)C6OC(=O)CCCCC)C(OC(=O)CCCCC)C5OC(=O)CCCCC)C(OC(=O)CCCCC)C4OC(=O)CCCCC)C(OC(=O)CCCCC)C3OC(=O)CCCCC)C1OC(=O)CCCCC (stereo not drawn) [compound no. 13, heptakis[6-desoxy-2,3-di-0-hexanoyl-6-(2-(N′-methylthioureido)ethylthio)]cyclomaltoheptaose]
